Data taken from ChEMBL document CHEMBL5465560, “Selectivity Literature for EUbOPEN Chemogenomic Library” (2024).
Each block holds one compound with its values, some of them ahead of it.

Legend:
[1] = target: T1, Mitogen-activated protein kinase kinase kinase kinase 2 (Homo sapiens) (UniProt Q12851); assay: Selectivity interaction (KinomeScan (DiscoverX)) EUB0000618a MAP4K2; details: at 10 µM
T1 sequence (whole entry): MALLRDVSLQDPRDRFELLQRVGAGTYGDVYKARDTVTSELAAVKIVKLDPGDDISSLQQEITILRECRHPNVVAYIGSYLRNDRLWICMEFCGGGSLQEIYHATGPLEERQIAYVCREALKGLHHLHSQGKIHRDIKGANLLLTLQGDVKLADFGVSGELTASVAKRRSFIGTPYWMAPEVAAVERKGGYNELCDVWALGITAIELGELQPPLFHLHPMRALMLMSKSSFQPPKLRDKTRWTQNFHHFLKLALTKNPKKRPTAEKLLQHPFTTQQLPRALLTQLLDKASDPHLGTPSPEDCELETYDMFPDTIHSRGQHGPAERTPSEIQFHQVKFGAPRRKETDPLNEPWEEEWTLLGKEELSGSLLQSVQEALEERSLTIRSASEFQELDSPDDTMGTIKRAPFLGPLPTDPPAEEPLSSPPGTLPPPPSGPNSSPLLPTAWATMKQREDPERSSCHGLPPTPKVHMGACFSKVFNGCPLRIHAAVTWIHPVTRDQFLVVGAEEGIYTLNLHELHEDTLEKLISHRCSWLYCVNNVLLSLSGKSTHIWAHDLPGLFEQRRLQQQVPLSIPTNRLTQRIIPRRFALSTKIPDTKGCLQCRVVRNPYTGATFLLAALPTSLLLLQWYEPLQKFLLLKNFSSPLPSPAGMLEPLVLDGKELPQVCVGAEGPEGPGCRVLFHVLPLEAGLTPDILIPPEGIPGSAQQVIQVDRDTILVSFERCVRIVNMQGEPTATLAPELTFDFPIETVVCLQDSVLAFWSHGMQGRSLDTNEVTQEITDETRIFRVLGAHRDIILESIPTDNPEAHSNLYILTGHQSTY

[2] = target: T2, Serine/threonine-protein kinase Nek2 (Homo sapiens) (UniProt P51955); assay: Selectivity interaction (Upstate Kinase Profiler service (Millipore)) EUB0000056c NEK2; details: at 1 µM
T2 sequence (whole entry): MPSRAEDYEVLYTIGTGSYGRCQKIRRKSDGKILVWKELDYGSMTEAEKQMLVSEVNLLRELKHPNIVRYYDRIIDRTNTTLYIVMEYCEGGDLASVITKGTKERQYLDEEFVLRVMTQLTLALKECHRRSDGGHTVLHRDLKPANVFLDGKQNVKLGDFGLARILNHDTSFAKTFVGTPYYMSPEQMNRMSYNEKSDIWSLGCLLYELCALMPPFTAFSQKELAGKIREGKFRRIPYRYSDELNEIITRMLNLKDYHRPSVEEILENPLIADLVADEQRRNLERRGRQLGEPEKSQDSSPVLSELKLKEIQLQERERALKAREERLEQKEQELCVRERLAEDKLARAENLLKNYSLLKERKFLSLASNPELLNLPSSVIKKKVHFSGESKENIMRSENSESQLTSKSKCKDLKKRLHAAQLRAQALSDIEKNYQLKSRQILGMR

[3] = target: WD repeat-containing protein 48 (Homo sapiens) (UniProt Q8TAF3); assay: Selectivity interaction (PWWP, WD40, and Tudor domain panel (DSLS measurements, literature)) EUB0000270b WDR48
WD repeat-containing protein 48 (Homo sapiens), sequence (Q8TAF3 whole entry, the tested form may be a part): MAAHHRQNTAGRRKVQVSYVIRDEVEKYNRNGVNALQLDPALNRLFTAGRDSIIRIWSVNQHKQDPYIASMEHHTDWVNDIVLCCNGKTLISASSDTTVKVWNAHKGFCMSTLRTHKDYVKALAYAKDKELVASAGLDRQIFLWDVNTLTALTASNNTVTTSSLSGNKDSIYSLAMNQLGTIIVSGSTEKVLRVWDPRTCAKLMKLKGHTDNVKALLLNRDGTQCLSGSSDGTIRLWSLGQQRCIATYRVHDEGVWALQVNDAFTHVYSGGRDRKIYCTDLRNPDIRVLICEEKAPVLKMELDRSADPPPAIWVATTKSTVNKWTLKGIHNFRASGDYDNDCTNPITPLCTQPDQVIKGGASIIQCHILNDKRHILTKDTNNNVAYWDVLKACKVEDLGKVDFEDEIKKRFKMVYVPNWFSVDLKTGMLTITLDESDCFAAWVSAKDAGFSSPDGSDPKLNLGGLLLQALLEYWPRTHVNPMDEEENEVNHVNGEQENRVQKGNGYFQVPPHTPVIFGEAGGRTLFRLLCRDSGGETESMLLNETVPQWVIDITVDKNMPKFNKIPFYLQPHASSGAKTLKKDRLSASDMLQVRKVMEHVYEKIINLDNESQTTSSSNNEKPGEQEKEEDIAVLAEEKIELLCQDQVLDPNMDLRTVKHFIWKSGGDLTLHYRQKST

[4] = target: T3, Serine/threonine-protein kinase ICK (Homo sapiens) (UniProt Q9UPZ9); assay: Selectivity interaction (KinomeScan (DiscoverX)) EUB0000092b ICK; details: at 10 µM
T3 sequence (whole entry): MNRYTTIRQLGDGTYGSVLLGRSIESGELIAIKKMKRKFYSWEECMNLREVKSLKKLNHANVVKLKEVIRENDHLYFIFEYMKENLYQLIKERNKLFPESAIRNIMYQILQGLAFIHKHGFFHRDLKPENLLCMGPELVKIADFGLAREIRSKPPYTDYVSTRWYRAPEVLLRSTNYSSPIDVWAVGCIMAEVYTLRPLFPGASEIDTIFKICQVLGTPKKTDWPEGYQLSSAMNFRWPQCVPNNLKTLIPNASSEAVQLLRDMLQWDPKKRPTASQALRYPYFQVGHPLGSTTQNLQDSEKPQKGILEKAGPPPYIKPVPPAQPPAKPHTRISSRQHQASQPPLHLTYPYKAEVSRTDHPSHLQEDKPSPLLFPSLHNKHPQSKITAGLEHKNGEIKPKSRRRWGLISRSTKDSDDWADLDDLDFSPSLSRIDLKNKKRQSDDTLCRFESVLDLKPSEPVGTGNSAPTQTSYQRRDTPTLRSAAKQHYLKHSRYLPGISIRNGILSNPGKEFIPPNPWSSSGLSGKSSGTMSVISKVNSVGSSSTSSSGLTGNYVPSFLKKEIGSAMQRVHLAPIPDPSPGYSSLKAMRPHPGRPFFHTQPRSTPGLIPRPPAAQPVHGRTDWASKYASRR

[5] = target: T4, Serine/threonine-protein kinase haspin (Homo sapiens) (UniProt Q8TF76); assay: Selectivity interaction (KinomeScan (DiscoverX)) EUB0001550a GSG2; details: at 1 µM
T4 sequence (whole entry): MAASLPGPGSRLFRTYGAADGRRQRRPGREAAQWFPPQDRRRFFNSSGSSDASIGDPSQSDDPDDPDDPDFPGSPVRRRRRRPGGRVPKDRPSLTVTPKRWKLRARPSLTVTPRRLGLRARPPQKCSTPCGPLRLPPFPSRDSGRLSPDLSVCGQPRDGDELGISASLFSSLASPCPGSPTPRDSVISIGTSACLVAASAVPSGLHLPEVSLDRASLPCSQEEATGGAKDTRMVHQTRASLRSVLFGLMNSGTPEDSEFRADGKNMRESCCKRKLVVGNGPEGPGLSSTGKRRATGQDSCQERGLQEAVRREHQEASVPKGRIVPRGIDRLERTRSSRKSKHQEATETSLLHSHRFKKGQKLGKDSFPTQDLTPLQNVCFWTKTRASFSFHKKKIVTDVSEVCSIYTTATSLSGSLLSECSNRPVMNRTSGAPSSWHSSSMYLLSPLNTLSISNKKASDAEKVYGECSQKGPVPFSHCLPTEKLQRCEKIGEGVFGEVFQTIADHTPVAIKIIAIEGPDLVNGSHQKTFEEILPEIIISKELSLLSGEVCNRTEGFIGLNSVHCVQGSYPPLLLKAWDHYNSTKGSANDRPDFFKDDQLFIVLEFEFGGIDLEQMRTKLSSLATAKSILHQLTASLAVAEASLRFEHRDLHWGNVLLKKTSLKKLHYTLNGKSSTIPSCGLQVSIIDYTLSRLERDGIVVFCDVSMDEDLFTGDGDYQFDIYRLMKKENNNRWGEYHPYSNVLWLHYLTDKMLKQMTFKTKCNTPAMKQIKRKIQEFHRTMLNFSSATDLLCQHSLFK

[6] = target: Phosphatidylinositol 4,5-bisphosphate 3-kinase catalytic subunit alpha isoform (Homo sapiens) (UniProt P42336); assay: Selectivity interaction (Adapta Assay) EUB0001632a PIK3CA; details: at 10 µM
Phosphatidylinositol 4,5-bisphosphate 3-kinase catalytic subunit alpha isoform (Homo sapiens), sequence (P42336 whole entry, canonical isoform): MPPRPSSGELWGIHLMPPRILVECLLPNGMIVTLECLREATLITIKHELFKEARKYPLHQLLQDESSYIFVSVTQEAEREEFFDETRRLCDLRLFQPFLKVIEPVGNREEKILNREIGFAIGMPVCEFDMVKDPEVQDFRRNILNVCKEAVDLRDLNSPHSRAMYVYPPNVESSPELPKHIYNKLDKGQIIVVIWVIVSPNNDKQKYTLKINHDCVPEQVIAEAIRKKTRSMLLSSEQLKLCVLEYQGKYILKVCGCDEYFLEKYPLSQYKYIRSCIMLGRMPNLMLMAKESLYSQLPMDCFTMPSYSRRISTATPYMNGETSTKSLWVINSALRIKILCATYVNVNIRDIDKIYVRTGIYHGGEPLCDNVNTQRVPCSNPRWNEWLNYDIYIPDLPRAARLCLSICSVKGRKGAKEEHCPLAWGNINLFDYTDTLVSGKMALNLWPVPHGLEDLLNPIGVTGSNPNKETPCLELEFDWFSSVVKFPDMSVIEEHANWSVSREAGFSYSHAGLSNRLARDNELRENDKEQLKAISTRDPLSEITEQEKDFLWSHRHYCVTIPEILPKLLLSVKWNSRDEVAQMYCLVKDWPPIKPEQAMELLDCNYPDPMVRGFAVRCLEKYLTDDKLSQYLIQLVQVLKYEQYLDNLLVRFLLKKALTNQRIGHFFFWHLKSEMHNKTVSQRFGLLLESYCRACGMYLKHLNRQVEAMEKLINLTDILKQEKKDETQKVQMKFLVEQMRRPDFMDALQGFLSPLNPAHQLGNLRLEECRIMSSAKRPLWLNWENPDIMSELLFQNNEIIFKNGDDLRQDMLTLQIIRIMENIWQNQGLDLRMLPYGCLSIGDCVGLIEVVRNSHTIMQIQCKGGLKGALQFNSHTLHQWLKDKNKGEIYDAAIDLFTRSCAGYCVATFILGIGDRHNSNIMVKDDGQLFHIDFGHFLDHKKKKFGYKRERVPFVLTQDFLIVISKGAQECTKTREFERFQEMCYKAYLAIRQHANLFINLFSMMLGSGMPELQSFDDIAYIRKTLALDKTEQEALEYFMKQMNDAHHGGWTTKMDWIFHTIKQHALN

% of inhibition [2]: -7%
SMILES: Cc1ccc(-c2ccc3c(ccc4sc5c(c43)NC[C@@H](C)NC5=O)n2)cn1

dTagg [3]: 0.1 K
SMILES: Cc1cc(CN)cc(C)c1-c1ncn(C)c1-c1cncn1C

% of control [5]: 13%
SMILES: CN(C)CC#Cc1ccc2[nH]c3c(c2c1)-c1nc(N)ncc1CCC3

% of inhibition [6]: 22.8%
SMILES: Cn1cc(-n2cnc3c(NCc4nc5cc(Cl)c(Cl)cc5[nH]4)nc(N4CCOCC4)nc32)cn1

The next lines start with the compound.

SMILES: O[C@H]1CC[C@H](Nc2ncc3nc(Nc4c(F)cc(F)cc4F)n([C@H]4CCOC4)c3n2)CC1
% of control [1]: 91%

SMILES: CCC(=O)N1CCN(c2ccc(-n3c(=O)ccc4cnc5ccc(-c6cnc7ccccc7c6)cc5c43)cc2C(F)(F)F)CC1
% of control [4]: 100%
